Values belong to the compound of their own block, whether it stands above or below them. Where a SMILES comes first, the peptide text is derived from it. [ ]: non-standard residue; d: D form. The star is where a group is joined. Ac6c = NC1(C(=O)O)CCCCC1; Cbz = O=C(OCc1ccccc1)*; CH2F = FC*
Legend:
Falcipain 2 [1] = molecular target: T1, Falcipain 2 (Plasmodium falciparum, UniProt Q9N6S8); test: Inhibition of Plasmodium falciparum FP-2 using Z-phe-Arg-AMC as substrate pretreated with enzyme for 30 mins followed by substrate addition and measured for 30 mins by fluorescence based analysis
T1 sequence (Q9N6S8 whole entry): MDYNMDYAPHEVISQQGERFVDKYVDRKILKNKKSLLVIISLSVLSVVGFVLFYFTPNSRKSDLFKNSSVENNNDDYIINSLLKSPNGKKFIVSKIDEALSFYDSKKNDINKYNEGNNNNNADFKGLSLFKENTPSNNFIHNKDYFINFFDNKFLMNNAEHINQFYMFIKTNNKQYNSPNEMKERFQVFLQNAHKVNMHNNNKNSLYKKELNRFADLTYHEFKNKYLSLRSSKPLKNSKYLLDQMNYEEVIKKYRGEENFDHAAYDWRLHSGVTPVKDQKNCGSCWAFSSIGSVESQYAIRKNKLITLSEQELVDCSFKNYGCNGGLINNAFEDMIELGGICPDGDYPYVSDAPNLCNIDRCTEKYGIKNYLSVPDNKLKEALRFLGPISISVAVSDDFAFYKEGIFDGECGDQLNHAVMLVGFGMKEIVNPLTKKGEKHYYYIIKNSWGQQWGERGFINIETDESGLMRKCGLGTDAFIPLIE

Plasmodium falciparum [2] = test: Antimalarial activity against Plasmodium falciparum FCB1 infected in erythrocytes assessed as inhibition of [3H]hypoxanthine incorporation incubated for 24 to 48 hrs by beta counting analysis; assay type: functional, organism-based; conditions: FCB1, Erythrocyte
Plasmodium falciparum [3] = test: Antiplasmodial activity against chloroquine-sensitive Plasmodium falciparum D6 infected in human RBC assessed as inhibition of parasite growth measured after 72 hrs by Malstat assay; assay type: functional, organism-based; conditions: D6, Erythrocyte
Falcipain 2 [4] = molecular target: T1, Falcipain 2; test: Binding affinity to Plasmodium falciparum FP-2 by surface plasmon resonance analysis
Plasmodium falciparum [5] = test: Antiplasmodial activity against chloroquine-resistant Plasmodium falciparum W2 infected in human RBC assessed as inhibition of parasite growth measured after 72 hrs by Malstat assay; assay type: functional, organism-based; conditions: W2, Erythrocyte
Falcipain 2 [6] = molecular target: T1, Falcipain 2; test: Inhibition of Plasmodium falciparum FP-2 using Z-Leu-Arg-AMC as substrate pretreated with enzyme for 30 mins followed by substrate addition and measured for 30 mins by spectrofluorometry
Plasmodium falciparum [7] = test: Antiplasmodial activity against Plasmodium falciparum W2; assay type: functional, organism-based
Falcipain 2 [8] = molecular target: T1, Falcipain 2; test: Inhibition of Plasmodium falciparum trophozite extracts FP-2
Plasmodium falciparum [9] = test: Antiplasmodial activity against Plasmodium falciparum D6; assay type: functional, organism-based
Plasmodium falciparum [10] = test: Antiplasmodial activity against Plasmodium falciparum HB3; assay type: functional, organism-based
Plasmodium falciparum [11] = test: Antiplasmodial activity against Plasmodium falciparum FCR3; assay type: functional, organism-based
Plasmodium falciparum [12] = test: Antiplasmodial activity against Plasmodium falciparum ItG2; assay type: functional; conditions: read-out: LD50 (the source's name)
Falcipain 2 [13] = molecular target: T1, Falcipain 2; test: Inhibition of Plasmodium falciparum FP-2 using Z-Leu-Arg-AMC as substrate pretreated with enzyme for 30 mins followed by substrate addition and measured for 15 mins by spectrofluorometry
Plasmodium falciparum [14] = test: Antiplasmodial activity against Plasmodium falciparum W2 infected in human erythrocytes assessed as inhibition of parasite growth measured after 48 hrs by flow cytometry; assay type: functional, organism-based; conditions: W2, Erythrocyte
Plasmodium falciparum [15] = test: Antimalarial activity against Chloroquine-sensitive Plasmodium falciparum 3D7 infected in human erythrocytes assessed as inhibition of parasite growth incubated for 72 hrs by Giemsa staining based analysis; assay type: functional, organism-based; conditions: 3D7, Erythrocyte
Heme = test: Inhibition of heme (unknown origin) assessed as inhibition of hemozoin formation incubated for 24 hrs by FBIT test
Plasmodium falciparum [16] = test: Antimalarial activity against Chloroquine-resistant Plasmodium falciparum RKL9 infected in human erythrocytes assessed as inhibition of parasite growth incubated for 72 hrs by Giemsa staining based analysis; assay type: functional, organism-based; conditions: RKL9, Erythrocyte
Falcipain 2 [17] = molecular target: T1, Falcipain 2; test: Inhibition of Plasmodium falciparum FP-2 using Z-Phe-Arg-AMC as substrate pretreated with enzyme for 10 mins followed by susbtrate addition and measured after 10 mins by fluorescence based analysis
[18] = system: Cathepsin B (relative to Plasmodium falciparum FP-2); test: Selectivity index, ratio of Ki for inhibition of human Cathepsin B to Ki for inhibition of Plasmodium falciparum FP-2; assay type: toxicity; conditions: read-out: Ratio Ki
Falcipain 2 [19] = molecular target: T1, Falcipain 2; test: Inhibition of Plasmodium falciparum FP-2 using Cbz-Leu-Arg-AMC as substrate and measured for 5 to 10 mins by fluorescence spectrophotometric analysis
[20] = system: Cathepsin L (relative to Plasmodium falciparum FP-2); test: Selectivity index, ratio of Ki for inhibition of human Cathepsin L to Ki for inhibition of Plasmodium falciparum FP-2; assay type: toxicity; conditions: read-out: Ratio Ki
Plasmodium vinckei = test: Antimalarial activity against Plasmodium vinckei infected in Swiss webster mouse assessed as disease cure rate at 50 to 100 mg/kg, po administered twice a day for 4 days; assay type: functional; conditions: dose 50-100 mg/kg, time 4 day
Falcipain 2 [21] = molecular target: T1, Falcipain 2; test: Inhibition of Plasmodium falciparum Itg2 trophozite extracts FP-2 using Z-phe-Arg-AMC as substrate pretreated with enzyme for 30 mins followed by substrate addition and measured for 30 mins by spectrofluorometry
Plasmodium falciparum [22] = test: Antiplasmodial activity against Plasmodium falciparum ItG; assay type: functional, organism-based
Plasmodium falciparum [23] = test: Antiplasmodial activity against Plasmodium falciparum Dd2; assay type: functional, organism-based
[24] = Inhibition of Plasmodium vinckei extracts VP-2 using Z-phe-Arg-AMC as substrate pretreated with enzyme for 30 mins followed by substrate addition and measured for 30 mins by spectrofluorometry
Falcipain-3 = molecular target: T2, Falcipain-3 (Plasmodium falciparum 3D7, UniProt Q8IIL0); test: Inhibition of Plasmodium falciparum D10 trophozite lysates FP-3 pretreated with compound for 1 hr followed by labeling with Cy5-DCG04 for 1 hr by fluorescence scanning analysis; assay type: subcellular
T2 sequence (Q8IIL0 whole entry): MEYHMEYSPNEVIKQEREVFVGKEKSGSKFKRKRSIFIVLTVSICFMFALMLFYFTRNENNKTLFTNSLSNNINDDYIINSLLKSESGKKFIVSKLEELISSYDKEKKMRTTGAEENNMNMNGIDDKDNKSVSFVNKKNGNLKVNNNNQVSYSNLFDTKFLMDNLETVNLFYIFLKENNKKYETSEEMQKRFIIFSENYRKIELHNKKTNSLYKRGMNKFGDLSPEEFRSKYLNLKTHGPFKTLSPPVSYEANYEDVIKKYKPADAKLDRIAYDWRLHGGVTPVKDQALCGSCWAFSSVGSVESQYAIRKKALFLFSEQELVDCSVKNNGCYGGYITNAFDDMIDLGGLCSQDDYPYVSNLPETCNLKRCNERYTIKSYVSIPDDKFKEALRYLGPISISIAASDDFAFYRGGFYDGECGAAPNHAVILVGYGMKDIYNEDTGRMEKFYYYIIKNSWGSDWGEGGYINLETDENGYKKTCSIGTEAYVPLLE

SMILES: COc1cc2cc(/C=C/C(=O)c3ccc(Cl)cc3Cl)c(Cl)nc2cc1OC
IC50 (Falcipain 2 [1]): > 100000 nM
IC50 (Plasmodium falciparum [2]): 19000 nM

SMILES: O=C(/C=C\c1ccc(O)c(O)c1)O[C@H]1CO[C@@H](Oc2c(-c3ccc(O)cc3)oc3cc(O)cc(O)c3c2=O)[C@H](OC(=O)/C=C/c2ccc(O)cc2)[C@H]1O
IC50 (Plasmodium falciparum [3]): 2900 nM
Kd (Falcipain 2 [4]): 33600 nM
IC50 (Plasmodium falciparum [5]): 2800 nM
IC50 (Falcipain 2 [6]): 440 nM

SMILES: N=C(N)NCCC[C@H](NC(=O)[C@H](Cc1ccccc1)NC(=O)OCc1ccccc1)C(=O)CF (Cbz-Phe-Arg-CH2F)
IC50 (Plasmodium falciparum [7]): 64 nM
IC50 (Falcipain 2 [8]): 0.36 nM
IC50 (Plasmodium falciparum [9]): 64 nM
IC50 (Plasmodium falciparum [10]): 100 nM
IC50 (Plasmodium falciparum [11]): 64 nM
LC50 (Plasmodium falciparum [12]): 64 nM

SMILES: COc1cc(OC)c(/C=C2\SC(=O)N(CC(=O)N3CCN(c4ccccc4)CC3)C2=O)c(OC)c1
IC50 (Falcipain 2 [13]): 25500 nM
EC50 (Plasmodium falciparum [14]): 450 nM

SMILES: COc1cccc(/C=C(\C#N)c2nc3ccccc3[nH]2)c1
IC50 (Plasmodium falciparum [15]): 690 nM
IC50 (Heme): 260 nM
IC50 (Plasmodium falciparum [16]): 3410 nM
IC50 (Falcipain 2 [17]): 2210 nM

SMILES: CC[C@H](C)[C@@H](C(=O)O[C@@H](CC(C)C)C(=O)N[C@@H](CC(C)C)C(=O)N[C@@H](C)/C=C/C(=O)N1C(=O)C=C(OC)[C@@H]1C)N(C)C [GALLINAMIDE A]
IC50 (Falcipain-3): 22 nM

Continued, in another order:

Ki (Falcipain 2 [19]): 65 nM
SMILES: O=CCNC(=O)C1(NC(=O)OCc2ccccc2)CCCCC1 (Cbz-[Ac6c]-Gly-aldehyde)
selectivity ratio [18]: 20.8
selectivity ratio [20]: 12.6

Ki (Falcipain 2 [19]): 1200 nM
SMILES: N#CCNC(=O)C1(NC(=O)OCc2ccccc2)CCCCC1
selectivity ratio [18]: > 100
selectivity ratio [20]: 22.1

IC50 (Plasmodium falciparum [7]): 0.2 nM
IC50 (Falcipain 2 [21]): 2 nM
IC50 (Plasmodium falciparum [22]): 0.18 nM
IC50 (Plasmodium falciparum [9]): 0.22 nM
IC50 (Plasmodium falciparum [10]): 0.19 nM
IC50 (Plasmodium falciparum [23]): 0.32 nM
IC50 [24]: 20 nM
SMILES: CC(C)C[C@H](NC(=O)N1CCN(C)CC1)C(=O)N[C@H](/C=C/S(=O)(=O)c1ccc2ccccc2c1)CCc1ccccc1
Activity (Plasmodium vinckei): 40%

Reference: ChEMBL document CHEMBL5325415, “Falcipains: Biochemistry, target validation and structure-activity relationship studies of inhibitors as antimalarials” (Eur J Med Chem, 2023)
